Data published in patent US20190314334A1, “COMPOUNDS FOR THE TREATMENT OF AUTOIMMUNE DISEASES” (QUIMATRYX, S.L., priority 2016, published 2019).

How the values were obtained:
[1] = system: experimental autoimmune encephalomyelitis induced by myelin oligodendrocyte glycoprotein (MOG); experiment: MOG-induced experimental autoimmune encephalomyelitis (EAE), paralysis scores; assay type: in vivo, mice; settings: variant of Example 2
Method: A variant of the animal model of Example 2 was tested. In particular, experimental autoimmune encephalomyelitis was induced by subcutaneous injection of myelin oligodendrocyte glycoprotein (MOG) instead of PLP.

[2] = system: PLP-induced EAE; experiment: PLP-induced experimental autoimmune encephalomyelitis (EAE), clinical grading; assay type: in vivo, Female SJL mice
[3] = system: Concanavalin A (ConA)-induced hepatitis; experiment: Concanavalin A (ConA)-induced hepatitis model of autoimmune hepatitis, plasma transaminase (GPT); assay type: in vivo, Male Balb/C mice; settings: blood 8 hours after ConA, vehicle 1338 U/L
Method: Concanavalin A (ConA)-induced hepatitis is a cell-mediated immunoinflammatory condition that can be induced in mice by a single intravenous injection of ConA. It is typically employed as a model for autoimmune hepatitis. The disease is characterized by a marked increase in the plasma levels of transaminase (GPT) shortly (8-24 hours) after ConA challenge and simultaneous infiltration of the liver with neutrophils, macrophages and T cells followed by apoptosis and necrosis of the hepatocytes. The aim of the present example was to evaluate the effects of a compound of formula (I) (QTX125) on histological and clinical parameters in the model of autoimmune hepatitis induced by ConA. Male Balb/C mice 7-8 weeks old (Envigo, San Pietro al Natisone, Udine, Italy) were kept under standard laboratory conditions (non-specific pathogen free) with free access to food and water and were allowed to adapt at least one week to their environment before commencing the study. ConA (Sigma Chemical, St. Louis, Mo.), was dissolved in sterile phosphate-buffered saline (PBS) and was injected into the tail veins of the animals at the dose of 20 mg/Kg. Three groups of 10 mice were treated at −24 and −1 hours before ConA injection as described in the table below: [table] […] The depth of colour is itself determined by the concentration of analyte in the sample.

O=C(NO)c1ccc(CNC(=O)c2[nH]c(-c3ccc(O)cc3)cc2-c2ccoc2)cc1 [QTX125]
paralysis scores (EAE clinical grading) [1]: reduced paralysis scores | EAE clinical grading (mouse condition) with respect to vehicle ([2]; 60 mg/Kg i.p. daily for 35 consecutive days, day 7 to day 42 post immunization): substantial improvement of mouse condition | EAE clinical grading (mouse condition) with respect to dexamethasone ([2]; 60 mg/Kg i.p. daily vs dexamethasone 0.3 mg/Kg, greater part of the treatment, particularly at the end): even ameliorated with respect to dexamethasone | transaminase (GPT) plasma level (light emission) ([3]; 25 mg/Kg i.p. 24 and 1 hour before ConA (20 mg/Kg i.v.)): 606 U/L | transaminase (GPT) plasma level (light emission) ([3]; 50 mg/Kg i.p. 24 and 1 hour before ConA (20 mg/Kg i.v.)): 543 U/L
